Laboratory results as given in patent publication US11596644B2, “Method for treating post-prandial hypoglycemia” (AVOLYNT, priority 2018, dated 2023).

Experiments:
rat SGLT2 = biological target: T1, rat SGLT2 (Rattus norvegicus, UniProt P53792); experiment: Inhibition of radiolabeled α-MG uptake into COS-7 cells transfected with rat SGLT2 (Dixon plot); type: cell-based; conditions: α-MG 0.3 and 1 mM
T1 construct: expressed in transfected cells; host or cells: COS-7
T1 sequence (P53792 1-670): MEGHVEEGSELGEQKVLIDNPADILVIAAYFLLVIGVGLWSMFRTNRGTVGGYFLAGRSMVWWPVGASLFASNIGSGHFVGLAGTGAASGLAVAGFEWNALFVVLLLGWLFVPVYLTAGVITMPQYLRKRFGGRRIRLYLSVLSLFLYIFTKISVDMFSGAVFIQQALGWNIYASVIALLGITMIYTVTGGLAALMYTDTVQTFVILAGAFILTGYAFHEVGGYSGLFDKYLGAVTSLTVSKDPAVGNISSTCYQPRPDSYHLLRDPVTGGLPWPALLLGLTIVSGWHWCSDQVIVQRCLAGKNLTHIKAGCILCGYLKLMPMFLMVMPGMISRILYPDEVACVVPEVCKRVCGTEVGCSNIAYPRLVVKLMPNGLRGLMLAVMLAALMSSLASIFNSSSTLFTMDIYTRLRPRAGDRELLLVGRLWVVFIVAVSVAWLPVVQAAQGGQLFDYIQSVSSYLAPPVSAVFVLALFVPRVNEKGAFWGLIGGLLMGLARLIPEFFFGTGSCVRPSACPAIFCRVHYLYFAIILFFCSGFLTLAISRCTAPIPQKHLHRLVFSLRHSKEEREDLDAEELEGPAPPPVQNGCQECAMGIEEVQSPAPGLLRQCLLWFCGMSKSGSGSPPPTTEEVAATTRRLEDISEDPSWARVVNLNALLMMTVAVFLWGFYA
Description: Selective inhibition study. Inhibition constants (Ki) of mizagliflozin for rat and human SGLT1 and SGLT2 were determined measuring concentration-dependent effects of test compound on uptake of radiolabeled methyl-α-D-glucopyranoside (α-MG) into COS-7 cells transiently transfected with cloned SGLT1 or SGLT2. Mizagliflozin was assessed at concentrations from 1 to 30 μM and 3 to 100 μM for human and rat SGLT2, respectively. It was assessed at concentrations from 30 nM to 1 μM and 10 to 30 nM for human and rat SGLT1, respectively. α-MG test concentrations were 0.3 and 1 mM. Data were analyzed and Ki determined using Dixon plots of initial transport rates. […] Inhibition constants were also determined for human SGLT1 and SGLT2.

[1] = system: STZ-induced diabetic rats; experiment: Mixed carbohydrate tolerance test in STZ-induced diabetic rats (Example 3); type: in vivo, rat; conditions: mixed carbohydrate 2.0 g/kg
Description: Study in diabetic rats. Mizagliflozin was tested in a rat model for diabetes and efficacy, as measured by a relative decrease in plasma glucose, was determined using a mixed carbohydrate tolerance test. Diabetic model rats were prepared by intravenous administration of streptozotocin (STZ) to induce diabetes. Seven days after STZ administration, rats were fasted for 16 hours and then given an oral loading dose of 2.0 g/kg of mixed carbohydrate (soluble starch:sucrose:lactose monohydrate=6:3:1). Mizagliflozin, or water as the vehicle control, was then administered as a single oral dose to groups of male rats (n=8/group) at doses of 0.01, 0.03, 0.1, and 0.3 mg/kg. Another control group was given vehicle and consisted of normal male Sprague Dawley rats that were not administered STZ. Voglibose was also administered as a single oral dose to male rats (n=8/group) at dose levels of 0.03, 0.1 and 0.3 mg/kg. Blood samples were collected just prior to loading with mixed carbohydrate and at 0.5, 1, 2, 3, 4, and 6 hours after loading. Plasma glucose concentrations were determined and ΔAUC0-1 h for plasma glucose was calculated.

[2] = system: STZ-induced diabetic rats; experiment: Oral glucose tolerance test in STZ-induced diabetic rats (Example 4); type: in vivo, rat
Description: Study in diabetic rats using oral glucose tolerance test. Efficacy of mizagliflozin was tested in a rat model for diabetes using an oral glucose tolerance test (OGTT). Diabetic model rats were prepared by intravenous administration of STZ to induce diabetes. Seven days after STZ administration, rats were fasted for 16 hours and then given an oral loading dose of 2.0 g/kg of glucose. Mizagliflozin, or water as the vehicle control, was then administered as a single oral dose to groups of male rats (n=8/group) at doses of 0.03, 0.1, 0.3, and 1 mg/kg. Another control group was given vehicle and consisted of normal male Sprague Dawley rats that were not administrated STZ. Voglibose was also administered as a single oral dose to male rats (n=8/group) at dose levels of 0.1, 0.3 and 1 mg/kg. Blood samples were collected just prior to loading with mixed carbohydrate and at 0.5, 1, 2, 3, 4, and 6 hours after loading. Plasma glucose concentrations were determined and ΔAUC0-1 h for plasma glucose was calculated.

[3] = system: normal Sprague Dawley rats; experiment: Mixed carbohydrate tolerance test in normal rats; type: in vivo, rat
Description: Study on normal rats. The efficacy of mizagliflozin (decreasing plasma glucose levels) in normal Sprague Dawley rats was determined in a mixed carbohydrate tolerance test. Normal rats were fasted for 16 hours and then given an oral loading dose of 2.0 g/kg of mixed carbohydrate (soluble starch:sucrose:lactose monohydrate=6:3:1). Mizagliflozin (KGA-3235 sebacate), or water as the vehicle control, was then administered as a single oral dose to groups of male rats (n=8/group) at doses of 0.03, 0.1, 0.3, and 1 mg/kg. Voglibose, a glucosidase inhibitor similar to acarbose, was used as a positive control and was administered as a single oral dose to male rats (n=8/group) at dose levels of 0.1, 0.3 and 1 mg/kg. Blood samples were collected just prior to loading with mixed carbohydrate and at 0.5, 1, 2, 3, 4, and 6 hours after loading.

Ki (rat SGLT2) [nM]	SMILES	ΔAUC0-1 h of plasma glucose versus vehicle control [1]	ΔAUC0-1 h relative to control group ([2]; OGTT, maximum dose 1 mg/kg)	ΔAUC0-1 h of plasma glucose versus vehicle control ([2]; glucose 2.0 g/kg)	ED50 ([3]; Rattus norvegicus, read-out: ED50 calculated from mean ΔAUC0-1 h (% of control), mixed carbohydrate 2.0 g/kg, single oral dose) [mg/kg]	ΔAUC0-1 h of plasma glucose versus vehicle control ([3]; mixed carbohydrate 2.0 g/kg)
41.1	O=C(CCc1ccc(O)cc1)c1c(O)cc(O)cc1O[C@@H]1O[C@H](CO)[C@@H](O)[C@H](O)[C@H]1O [phlorizin, reference compound]	–	–	–	–	–
–	OCC(CO)N[C@H]1C[C@](O)(CO)[C@@H](O)[C@H](O)[C@H]1O [voglibose, reference compound]	significant decrease	not half or less than half that in the control group	significant decrease	0.32	significant decrease
